Columns and labels:
breast cancer cells = details: cited from earlier work
cancer risk = details: 1100 IU, 4-year period, women in Nebraska; cited from earlier work
SIRT1 = molecular target: T1, SIRT1 (Homo sapiens, UniProt Q96EB6); test: SIRT1 Fluorescent Activity Assay/Drug Discovery Kit AK-555; format: biochemical; details: capsules stored under ambient conditions
T1 sequence (Q96EB6 1-747): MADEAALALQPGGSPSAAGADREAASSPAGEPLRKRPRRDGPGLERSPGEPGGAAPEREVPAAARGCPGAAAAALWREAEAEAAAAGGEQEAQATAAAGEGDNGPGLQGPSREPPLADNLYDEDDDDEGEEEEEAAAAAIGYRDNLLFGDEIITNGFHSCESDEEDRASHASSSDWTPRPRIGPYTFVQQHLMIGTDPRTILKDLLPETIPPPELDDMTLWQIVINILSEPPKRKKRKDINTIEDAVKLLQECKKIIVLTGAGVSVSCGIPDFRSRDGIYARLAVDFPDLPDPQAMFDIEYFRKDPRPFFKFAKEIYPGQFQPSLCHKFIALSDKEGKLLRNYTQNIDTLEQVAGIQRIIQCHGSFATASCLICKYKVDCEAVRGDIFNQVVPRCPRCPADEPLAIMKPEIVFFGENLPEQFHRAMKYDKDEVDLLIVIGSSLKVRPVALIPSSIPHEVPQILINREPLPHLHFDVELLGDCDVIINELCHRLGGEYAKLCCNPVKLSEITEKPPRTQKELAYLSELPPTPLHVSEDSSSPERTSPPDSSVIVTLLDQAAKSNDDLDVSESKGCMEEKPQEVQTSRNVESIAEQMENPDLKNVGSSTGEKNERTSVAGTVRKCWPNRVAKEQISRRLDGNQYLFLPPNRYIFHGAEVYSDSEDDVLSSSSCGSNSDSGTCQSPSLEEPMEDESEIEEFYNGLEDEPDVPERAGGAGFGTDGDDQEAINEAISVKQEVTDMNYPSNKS

miR-20b = miR-20b quantification in I/R heart, Taqman real-time PCR; format: in vivo, rat; details: I/R alone: down regulation […]; FIG. 17C
Source text: Animals. […] Male Sprague-Dawley rats weighing between 250 and 300 g were fed ad libitum regular rat chow with free access to water until the start of the experimental procedure.

reactive oxygen species = test: Intracellular ROS by CM-H2DCFDA fluorescence in I/R heart; format: in vivo, rat; details: IR heart, FIG. 19
Procedure: The dye was injected intravenously, prior to induction of ischemia/reperfusion, and at the end of the experiments, the level of fluorescence was determined for the generation of ROS by measuring the fluorescent oxidation product CM-DCF in the cytosol, at an excitation wavelength of 480 nm and an emission wavelength of 520 nm.

rhabdomyosarcoma cells = details: low dosage; cited from earlier work
injected tumors = details: mice with injected tumors; cited from earlier work

SMILES: C=C1CC[C@H](O)C/C1=C/C=C1\CCC[C@]2(C)[C@@H]([C@H](C)CCCC(C)C)CC[C@@H]12 [vitamin D3, cholecalciferol]
- decline of number of breast cancer cells (breast cancer cells; higher concentrations of vitamin D3): about 25%
- decline of breast tumor cell numbers (breast cancer cells; low-dose vitamin D3): does not reduce
- reduction in cancer risk (cancer risk): 60-77%

SMILES: O=c1c(O)c(-c2ccc(O)c(O)c2)oc2cc(O)cc(O)c12 [quercetin]
- biological activity of encapsulated quercetin (ability to stimulate SIRT1 activity) (SIRT1): maintained biological activity

SMILES: CC(C)=CCC/C(C)=C/CC/C(C)=C/CC[C@]1(C)CCc2cc(O)c(C)c(C)c2O1 [γ-tocotrienol]
- miR-20b expression in pretreated I/R hearts (miR-20b): 9.4 fold
- intracellular ROS concentration compared to control (reactive oxygen species): lowered

SMILES: O=P(O)(O)O[C@H]1[C@H](OP(=O)(O)O)[C@@H](OP(=O)(O)O)[C@H](OP(=O)(O)O)[C@@H](OP(=O)(O)O)[C@H]1OP(=O)(O)O [IP6, (2,3,4,5,6-pentaphosphonooxycyclohexyl)dihydrogen phosphate]
- suppression of growth of rhabdomyosarcoma cells (rhabdomyosarcoma cells): 50%
- tumor size, times smaller than non-treated mice (injected tumors): 50 times

Source: patent publication US20140011889A1, “Resveratrol-Containing Compositions and Methods of Use for Cardiac-Related Diseases” (Resveratrol Partners, LLC, priority 2010, published 2014)
